Source: ChEMBL document CHEMBL2413067, “Investigation into the functional impact of the vancomycin C-ring aryl chloride” (2013)
≈ marks a conversion by molar mass, not a printed value.

Legend:
[1] = Binding affinity to N,N'-Ac2-L-Lys-D-Ala-D-Ala model of cell wall ligand by UV-difference assay
[2] = system: Staphylococcus aureus; assay: Antimicrobial activity against vancomycin-sensitive Staphylococcus aureus ATCC 25923 after 24 hrs; format: functional; details: ATCC 25923, 24 h
[3] = Binding affinity to N,N'-Ac2-L-Lys-D-Ala-D-Ser model of cell wall ligand by UV-difference assay
[4] = Binding affinity to N,N'-Ac2-L-Lys-D-Ala-D-Phe model of cell wall ligand by UV-difference assay
[5] = Binding affinity to N,N'-Ac2-L-Lys-D-Ala-Gly model of cell wall ligand by UV-difference assay

CN[C@H](CC(C)C)C(=O)N[C@H]1C(=O)N[C@@H](CC(N)=O)C(=O)N[C@H]2C(=O)N[C@H]3C(=O)N[C@H](C(=O)N[C@H](C(=O)O)c4cc(O)cc(O)c4-c4cc3ccc4O)[C@H](O)c3ccc(c(Cl)c3)Oc3cc2cc(c3O[C@@H]2O[C@H](CO)[C@@H](O)[C@H](O)[C@H]2O[C@H]2C[C@](C)(N)[C@H](O)[C@H](C)O2)Oc2ccc(cc2Cl)[C@H]1O [VANCOMYCIN]
Ka [1]: 1.8 ×10⁵ /M
MIC [2]: 1.25 µg/mL (≈ 0.863 µM)

CN[C@H](CC(C)C)C(=O)N[C@H]1C(=O)N[C@@H](CC(N)=O)C(=O)N[C@H]2C(=O)N[C@H]3C(=O)N[C@H](C(=O)N[C@H](C(=O)O)c4cc(O)cc(O)c4-c4cc3ccc4O)[C@H](O)c3ccc(cc3)Oc3cc2cc(c3O)Oc2ccc(cc2)[C@H]1O
Ka [1]: 0.18 ×10⁵ /M
MIC [2]: 20 µg/mL (≈ 18.6 µM)

CN[C@H](CC(C)C)C(=O)N[C@H]1C(=O)N[C@@H](CC(N)=O)C(=O)N[C@H]2C(=O)N[C@H]3C(=O)N[C@H](C(=O)N[C@H](C(=O)O)c4cc(O)cc(O)c4-c4cc3ccc4O)[C@H](O)c3ccc(cc3)Oc3cc2cc(c3O)Oc2ccc(cc2Cl)[C@H]1O
Ka [3]: 4 ×10³ /M
Ka [1]: 0.38 ×10⁵ /M
MIC [2]: 10 µg/mL (≈ 9.01 µM)
Ka [4]: 9 ×10² /M
Ka [5]: 0.49 ×10⁴ /M

CN[C@H](CC(C)C)C(=O)N[C@H]1C(=O)N[C@@H](CC(N)=O)C(=O)N[C@H]2C(=O)N[C@H]3C(=O)N[C@H](C(=O)N[C@H](C(=O)O)c4cc(O)cc(O)c4-c4cc3ccc4O)[C@H](O)c3ccc(c(Cl)c3)Oc3cc2cc(c3O)Oc2ccc(cc2Cl)[C@H]1O [VANCOMYCIN AGLYCON]
Ka [3]: 3.3 ×10³ /M
Ka [1]: 1.4 ×10⁵ /M
MIC [2]: 1.25 µg/mL (≈ 1.09 µM)
Ka [4]: 9.1 ×10² /M
Ka [5]: 1 ×10⁴ /M
